Laboratory results as given in patent US9012200B2, “Composition of bacterial strains, bioremediation mixture and use of this composition for the removal of contaminants from the soil and the method for purifying the soil contaminants” (priority 2012, dated 2015).
Like-named read-outs stand apart in the source and are kept apart here.

Legend:
[1] = system: Stenotrophomonas sp. strain 2L; format: cell-based
[2] = system: Brevundimonas sp. strain 2N; format: cell-based
[3] = system: investigated strains of bacteria; format: cell-based
[4] = system: Pseudomonas sp. strain 4G; format: cell-based
[5] = system: Pseudomonas sp. strain 3G; format: cell-based; conditions: 24 h
[6] = system: Stenotrophomonas sp. strain 5L; format: cell-based
[7] = system: Stenotrophomonas sp. strain 6L; format: cell-based
[8] = system: Stenotrophomonas sp. strain 3N; format: cell-based
[9] = system: Brevundimonas sp. strain 5N; format: cell-based
[10] = system: Brevundimonas sp. strain 6N; format: cell-based
[11] = system: Arthrobacter sp. strain 1N; format: cell-based
[12] = system: Achromobacter sp. strain 4P; format: cell-based
[13] = system: model strain Escherichia coli; conditions: according to Spain, 2003; cited from earlier work

Q: For `O=S(=O)([O-])[O-].[Cd+2]` [Cd(II), Cadmium sulphate], which “MIC threshold values of heavy metals” value [1] is on record?
A: Its value is 0.1 mM/L.

Q: What about the “MIC threshold values of heavy metals” value [2] of the same compound?
A: The value was 0.1 mM/L.

Q: And the “Growth of the strains in the presence of the metal salt” value [3]?
A: Its value is “None of the investigated strains was able to grow”.

Q: What about the “Susceptibility of the investigated strains to the heavy metal” value (“Susceptibility” for short) [3] of the same compound?
A: The value was “susceptible”.

Q: And the “MIC threshold values of heavy metals” value ([4]; 24 h)?
A: Its value is 0.1 mM/L.

Q: And the “MIC threshold values of heavy metals” value [5]?
A: The value was 0.1 mM/L.

Q: What about the “MIC threshold values of heavy metals” value [6] of the same compound?
A: The value was 0.1 mM/L.

Q: And the “MIC threshold values of heavy metals” value [7]?
A: The value was 0.1 mM/L.

Q: What about the “MIC threshold values of heavy metals” value [8] of the same compound?
A: The value was 0.1 mM/L.

Q: And the “MIC threshold values of heavy metals” value [9]?
A: Its value is 0.1(0.2) mM/L.

Q: And the “MIC threshold values of heavy metals” value [10]?
A: Its value is 0.1 mM/L.

Q: What about the “MIC threshold values of heavy metals” value [11] of the same compound?
A: Its value is 0.1 mM/L.

Q: What about the “MIC threshold values of heavy metals” value [12] of the same compound?
A: Its value is 0.1(0.2) mM/L.

Q: And the MIC [13]?
A: Its MIC is 0.5 mM/L.

Q: With `[K+].[K+].[O]=[Cr](=[O])([O-])[O][Cr](=[O])(=[O])[O-]` [Cr(VI), Potassium dichromate] as the compound, how does the “Susceptibility” value [3] read?
A: The value was “resistant”.

Q: What about the MIC [13] of the same compound?
A: The MIC was 0.2 mM/L.

Q: For `O=S(=O)([O-])[O-].[Cu+2]` [Cu(II), Copper sulphate], which “MIC threshold values of heavy metals” value [1] is on record?
A: The value was 3 mM/L.

Q: And the “MIC threshold values of heavy metals” value [2]?
A: Its value is 3(4) mM/L.

Q: What about the “Susceptibility” value [3] of the same compound?
A: Its value is “resistant”.

Q: What about the “MIC threshold values of heavy metals” value ([4]; 24 h) of the same compound?
A: Its value is 3 mM/L.

Q: And the “MIC threshold values of heavy metals” value ([4]; 48 h)?
A: The value was 4 mM/L.

Q: What about the “MIC threshold values of heavy metals” value [5] of the same compound?
A: The value was 3 mM/L.

Q: What about the “MIC threshold values of heavy metals” value [6] of the same compound?
A: The value was 3 mM/L.

Q: What about the “MIC threshold values of heavy metals” value [7] of the same compound?
A: Its value is 3(4) mM/L.

Q: What about the “MIC threshold values of heavy metals” value [8] of the same compound?
A: Its value is 3(4) mM/L.

Q: And the “MIC threshold values of heavy metals” value [9]?
A: The value was 3(4) mM/L.

Q: And the “MIC threshold values of heavy metals” value [10]?
A: Its value is 3(4) mM/L.

Q: What about the “MIC threshold values of heavy metals” value [11] of the same compound?
A: Its value is 3 mM/L.

Q: And the “MIC threshold values of heavy metals” value [12]?
A: The value was 3 mM/L.

Q: And the MIC [13]?
A: Its MIC is 1 mM/L.
